This is an account of results in US20260125360A1, “HERBICIDAL IMIDAZOLE COMPOUNDS” (SYNGENTA CROP PROTECTION AG, priority 2022, published 2026).

What all share (assay type): in vivo
What all share (conditions): 250 g/ha, evaluated after 13 days

Test [1] concerns Echinochloa crus-galli (ECHCG). Put plainly: Pre-emergence herbicide glasshouse test. Summed up:
(§1)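 Percentage plant damage, rated on a five-point scale (5=81-100%; 1=0-20%), is assessed 13 days after treatment. Sprays are applied at 250 g/ha unless otherwise stated, one day after sowing for pre-emergence and eight days after for post-emergence, from acetone/water (50:50) containing 0.5% Tween 20.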

The test system of test [2] is Ipomoea hederacea (IPOHE). Put plainly: Pre-emergence herbicide glasshouse test. Summed up: as §1
For test [3], the system named is Amaranthus retoflexus (AMARE). Put plainly: Pre-emergence herbicide glasshouse test. The procedure, abridged:
as §1

In test [4] the test system is Amaranthus palmeri (AMAPA). Briefly: Pre-emergence herbicide glasshouse test. The procedure, abridged: as §1
The test system of test [5] is Echinochloa crus-galli (ECHCG). Put plainly: Post-emergence herbicide glasshouse test. Summed up:
as §1

The test system of test [6] is Ipomoea hederacea (IPOHE). Briefly: Post-emergence herbicide glasshouse test. Summed up:
as §1

Test [7] concerns Amaranthus retoflexus (AMARE). Briefly: Post-emergence herbicide glasshouse test. The procedure, abridged: as §1
Test [8] deals with Amaranthus palmeri (AMAPA). Briefly: Post-emergence herbicide glasshouse test. Summed up:
as §1

On to `Cc1nnc(Cn2cc(C(F)(F)F)nc2-c2cnc(Cl)c(F)c2)o1` [Compound 1.181], for which the results for the “percentage damage caused to the plant, ECHCG (five-point scale)” value in test [1] and in test [5] were 3 (3=41-60%) and 1 (1=0-20%), respectively. Also, the “percentage damage caused to the plant, IPOHE (five-point scale)” value in test [2] is reported as 4 (4=61-80%); in test [6], 1 (1=0-20%). Also, the “percentage damage caused to the plant, AMARE (five-point scale)” value is 5 (5=81-100%) in test [3] and 4 (4=61-80%) in test [7]. For the same molecule, the entries for the “percentage damage caused to the plant, AMAPA (five-point scale)” value in test [4] and in test [8] were 5 (5=81-100%) and 4 (4=61-80%), respectively.

In the case of `Cn1cnc(Cn2cc(C#N)nc2-c2cnc(Cl)c(F)c2)n1` [Compound 1.182], the “percentage damage caused to the plant, ECHCG (five-point scale)” value is 4 (4=61-80%) in test [1] and 3 (3=41-60%) in test [5]. The “percentage damage caused to the plant, IPOHE (five-point scale)” value is on record as 5 (5=81-100%) in test [2] and 3 (3=41-60%) in test [6]. For the same molecule, the “percentage damage caused to the plant, AMARE (five-point scale)” value in test [3] and in test [7] was 5 (5=81-100%) in each case. The “percentage damage caused to the plant, AMAPA (five-point scale)” value in test [4] was 5 (5=81-100%); in test [8] it was 4 (4=61-80%).

In the case of `Cc1nnc(Cn2cc(C(F)(F)F)nc2-c2ccc(F)c(F)c2)o1` [Compound 1.183], the “percentage damage caused to the plant, ECHCG (five-point scale)” value in test [1] is reported as 3 (3=41-60%); in test [5] it was 2 (2=21-40%). Moreover, the “percentage damage caused to the plant, IPOHE (five-point scale)” value in test [2] is recorded as 5 (5=81-100%); in test [6] it was 4 (4=61-80%). Also, the “percentage damage caused to the plant, AMARE (five-point scale)” value in test [3] and in test [7] was 5 (5=81-100%) throughout. Also, the “percentage damage caused to the plant, AMAPA (five-point scale)” value in test [4] and in test [8] was 5 (5=81-100%) in each case.

As to `Cn1cnc(Cn2cc(C#N)nc2-c2ccc(F)c(F)c2)n1` [Compound 1.184], the “percentage damage caused to the plant, ECHCG (five-point scale)” value is 5 (5=81-100%) in test [1] and 4 (4=61-80%) in test [5]. For the same molecule, the “percentage damage caused to the plant, IPOHE (five-point scale)” value in test [2] and in test [6] was 5 (5=81-100%) throughout. Also, the “percentage damage caused to the plant, AMARE (five-point scale)” value in test [3] and in test [7] was 5 (5=81-100%) throughout. Moreover, the “percentage damage caused to the plant, AMAPA (five-point scale)” value in test [4] and in test [8] was 5 (5=81-100%) in each case.

On to `Cc1cc(Cn2cc(C#N)nc2-c2cnc(Cl)c(F)c2)no1` [Compound 1.185], for which the “percentage damage caused to the plant, ECHCG (five-point scale)” value in test [1] is 3 (3=41-60%); in test [5], 1 (1=0-20%). For the same molecule, the “percentage damage caused to the plant, IPOHE (five-point scale)” value in test [2] is 4 (4=61-80%); in test [6], 3 (3=41-60%). In addition, the “percentage damage caused to the plant, AMARE (five-point scale)” value in test [3] is reported as 5 (5=81-100%); in test [7] it was 4 (4=61-80%). Besides, the “percentage damage caused to the plant, AMAPA (five-point scale)” value in test [4] was 5 (5=81-100%); in test [8], 4 (4=61-80%).

For `Cc1cc(Cn2cc(C(F)(F)F)nc2-c2ccc(F)c(F)c2)no1` [Compound 1.192], the “percentage damage caused to the plant, ECHCG (five-point scale)” value in test [1] and in test [5] was 5 (5=81-100%) throughout. Also, the “percentage damage caused to the plant, IPOHE (five-point scale)” value in test [2] and in test [6] was 5 (5=81-100%) in each case. Moreover, the “percentage damage caused to the plant, AMARE (five-point scale)” value in test [3] and in test [7] was 5 (5=81-100%) in each case. Further, the “percentage damage caused to the plant, AMAPA (five-point scale)” value in test [4] and in test [8] was 5 (5=81-100%) throughout.
